In US10071963B2, “Polymorphic form of N-[2-(6-fluoro-1H-indol-3-yl)ethyl]-3-(2,2,3,3-tetrafluoropropoxy)benzylamine hydrochloride for the treatment of Alzheimer's disease” (H. Lundbeck A/S, priority 2014, dated 2018):

Columns and labels:
Type in all cases: physicochemical
[1] = Thermodynamic solubility in organic solvents; conditions: room temperature (about 23° C.); for Solubility: HPLC at 217 nm, hydrochloride
Protocol: Thermodynamic solubility of polymorphic form I and III of N-[2-(6-fluoro-1H-indol-3-yl)ethyl]-3-(2,2,3,3-tetrafluoropropoxy)benzylamine hydrochloride was measured by shaking an excess amount of the two polymorphic forms in the organic solvent in a sealed container at room temperature (about 23° C.). After equilibrium was attained, a sample was withdrawn, the solid filtered or centrifuged off and the clear filtrate/supernatant was assayed by HPLC at 217 nm. The precipitate was evaluated by XRPD to determine the polymorphic form.

[2] = Slurry experiments of polymorphic form I in solvents, solid evaluated by XRPD; conditions: no solvate formed, hydrochloride
Protocol: 6 mL of a solvent or solvent mixture is added into a glass vial together with polymorphic form I of N-[2-(6-fluoro-1H-indol-3-yl)ethyl]-3-(2,2,3,3-tetrafluoropropoxy)benzylamine hydrochloride. The added amount of compound is determined by the expected solubility in the relevant solvent or solvent system. If a clear solution is obtained anti-solvent and/or additional polymorphic form I of N-[2-(6-fluoro-1H-indol-3-yl)ethyl]-3-(2,2,3,3-tetrafluoropropoxy)benzylamine hydrochlorideis added until it is a suspension at the relevant temperature. The suspension is slurred for a prolonged period of time. The result of the slurry experiment is evaluated by filtering off the solid material and measuring XRPD on the isolated solid.
(§1) 6 mL of a toluene/acetonitrile (4:1) solvent mixture was added into a glass vial and 100 mg polymorphic form I of N-[2-(6-fluoro-1H-indol-3-yl)ethyl]-3-(2,2,3,3-tetrafluoropropoxy)benzylamine hydrochloride was added. The resulting suspension was heated to 50° C. A clear solution was obtained and another 50 mg was added. The suspension was stirred for one month at 50° C. Polymorphic form III of N-[2-(6-fluoro-1H-indol-3-yl)ethyl]-3-(2,2,3,3-tetrafluoropropoxy)benzylamine hydrochloride was obtained as evaluated by XRPD.
as §1, with “an acetone/heptane (1:4)” for “a toluene/acetonitrile (4:1)”, “C.” for “C. A clear solution was obtained and another 50 mg was added.”, “week” for “month”
6 mL of a methanol/toluene (1:9) solvent mixture was added into a glass vial and 100 mg polymorphic form I of N-[2-(6-fluoro-1H-indol-3-yl)ethyl]-3-(2,2,3,3-tetrafluoropropoxy)benzylamine hydrochloride was added. After stirring another 1 mL of the anti-solvent (toluene) was added +50 mg polymorphic form I of N-[2-(6-fluoro-1H-indol-3-yl)ethyl]-3-(2,2,3,3-tetrafluoropropoxy)benzylamine hydrochloride. […] To the 4 mL solutions another 1 mL of toluene was added and additional 50 mg polymorphic form I of N-[2-(6-fluoro-1H-indol-3-yl)ethyl]-3-(2,2,3,3-tetrafluoropropoxy)benzylamine hydrochloride. The resulting suspension was heated to 50° C. A clear solution was obtained and substance was added until a suspension was obtained. The suspension was stirred for one week at 50° C. Polymorphic form III of N-[2-(6-fluoro-1H-indol-3-yl)ethyl]-3-(2,2,3,3-tetrafluoropropoxy)benzylamine hydrochloride was obtained as evaluated by XRPD.
6 mL of isopropyl acetate was added into a glass vial and 50 mg polymorphic form I of N-[2-(6-fluoro-1H-indol-3-yl)ethyl]-3-(2,2,3,3-tetrafluoropropoxy)benzylamine hydrochloride was added. The resulting suspension was heated to 50° C. A clear solution was obtained and another 50 mg polymorphic form I of N-[2-(6-fluoro-1H-indol-3-yl)ethyl]-3-(2,2,3,3-tetrafluoropropoxy)benzylamine hydrochloride was added. Substance was added until a suspension was obtained at 50° C. The suspension was stirred for one week at 50° C. Polymorphic form III of N-[2-(6-fluoro-1H-indol-3-yl)ethyl]-3-(2,2,3,3-tetrafluoropropoxy)benzylamine hydrochloride was obtained as evaluated by XRPD.
6 mL of ethyl acetate was added into a glass vial and 150 mg polymorphic form I of N-[2-(6-fluoro-1H-indol-3-yl)ethyl]-3-(2,2,3,3-tetrafluoropropoxy)benzylamine hydrochloride was added. The resulting suspension was heated to 50° C. on a thermal stirrer plate. A clear solution was obtained and 50 mg polymorphic form I of N-[2-(6-fluoro-1H-indol-3-yl)ethyl]-3-(2,2,3,3-tetrafluoropropoxy)benzylamine hydrochloride was added. Polymorphic form I of N-[2-(6-fluoro-1H-indol-3-yl)ethyl]-3-(2,2,3,3-tetrafluoropropoxy)benzylamine hydrochloride was added until a suspension was obtained. The suspension was stirred for one month at 50° C. […]

[3] = Relative stability of polymorphic form I, II and III (competitive slurry in saturated solution); conditions: II and III in equal amounts, hydrochloride
Protocol: A saturated solution was prepared by heating 1.6 mL isopropyl acetate and 0.4 mL heptane to 70° C. and adding 50 mg of polymorphic form I of N-[2-(6-fluoro-1H-indol-3-yl)ethyl]-3-(2,2,3,3-tetrafluoropropoxy)benzylamine hydrochloride.
The supernatant was divided into two ampoules and kept at 60° C. and 70° C.
5 mg of polymorphic form I, II and III of N-[2-(6-fluoro-1H-indol-3-yl)ethyl]-3-(2,2,3,3-tetrafluoropropoxy)benzylamine hydrochloride was added to the 60° C. solution and left stirring at 60° C. for one and four days, respectively.
2.5 mg of polymorphic form I, II and III of N-[2-(6-fluoro-1H-indol-3-yl)ethyl]-3-(2,2,3,3-tetrafluoropropoxy)benzylamine hydrochloride was added to the 70° C. solution and left without stirring at 70° C. for three days.

[4] = isopropyl acetate, 60° C., one and four days
[5] = 70° C., without stirring, three days

| Solubility ([1]; 2-butanol) [mg base/mL] | Solubility ([1]; Isopropanol) [mg base/mL] | Solubility ([1]; Isopropyl acetate) [mg base/mL] | Relative thermodynamic stability of the polymorphic forms [3, 4] | Relative thermodynamic stability of the polymorphic forms [3, 5] | SMILES | Transformation on slurrying / relative solubility and thermodynamic stability ([2]; slurried at 5° C.) | Transformation on slurrying / relative solubility and thermodynamic stability ([2]; slurried at 25° C.) | Transformation on slurrying / relative solubility and thermodynamic stability ([2]; slurried at 50° C.) | Relative solubility and thermodynamic stability ([1]; organic solvents, compared with polymorphic form I) |
| --- | --- | --- | --- | --- | --- | --- | --- | --- | --- |
| 10.5 | 25.2 | 3.4 | less stable than polymorphic form III | – | Cl.Fc1ccc2c(CCNCc3cccc(OCC(F)(F)C(F)F)c3)c[nH]c2c1 [polymorphic form I, N-[2-(6-fluoro-1H-indol-3-yl)ethyl]-3-(2,2,3,3-tetrafluoropropoxy)benzylamine hydrochloride] | transformed into polymorphic form III | transformed into polymorphic form III | transformed into polymorphic form III | – |
| – | – | – | thermodynamically stable | thermodynamically stable | Cl.Fc1ccc2c(CCNCc3cccc(OCC(F)(F)C(F)F)c3)c[nH]c2c1 [polymorphic form II, N-[2-(6-fluoro-1H-indol-3-yl)ethyl]-3-(2,2,3,3-tetrafluoropropoxy)benzylamine hydrochloride] | – | – | – | – |
| 9.3 | 24.5 | 3.0 | transforming into polymorphic form II | vanished | Cl.Fc1ccc2c(CCNCc3cccc(OCC(F)(F)C(F)F)c3)c[nH]c2c1 [polymorphic form III, N-[2-(6-fluoro-1H-indol-3-yl)ethyl]-3-(2,2,3,3-tetrafluoropropoxy)benzylamine hydrochloride] | less soluble and therefore thermodynamically stable | less soluble and therefore thermodynamically stable | less soluble and therefore thermodynamically stable | slightly less soluble and therefore thermodynamically stable |
